In the NIST ThermoML archive (doi:10.1016/j.fluid.2012.12.001):

Test: an = ratio of the nth substance listed
Settings: for viscosity / mass density: 101 kPa, Liquid; for viscosity: Capillary tube (Ostwald / Ubbelohde) method; for mass density: Vibrating tube method; for surface tension liquid-gas: Capillary rise

CC(O)C(=O)O (centres undefined) [2-hydroxypropanoic acid] + C[N+](C)(C)CCO.[Cl-]
Settings	mass density [kg/m3]	surface tension liquid-gas [mN/m]	viscosity [mPa·s]
298.15 K, a1 = 1.3	1166.3	–	722.55
298.15 K, a1 = 1.5	1174.9	–	615.62
298.15 K, a1 = 2	1179.3	–	536.28
298.15 K, a1 = 2.5	1184.7	–	494.73
298.15 K, a1 = 3	1189.3	–	437.53
298.15 K, a1 = 3.5	1193.2	–	418.14
298.15 K, a1 = 5	1200.6	–	378.56
298.15 K, a1 = 8	1208	–	341.27
298.15 K, a1 = 10	1211.3	–	321.5
298.15 K, a1 = 15	1173.2	–	226.94
298.2 K, a1 = 2	–	48	–
303.15 K, a1 = 1.3	1163.1	–	508.17
303.15 K, a1 = 1.5	1171.4	–	428.98
303.15 K, a1 = 2	1175.8	–	370.38
303.15 K, a1 = 2.5	1181.1	–	341.17
303.15 K, a1 = 3	1185.6	–	300.21
303.15 K, a1 = 3.5	1189.4	–	285.25
303.15 K, a1 = 5	1196.7	–	254.91
303.15 K, a1 = 8	1204	–	226.58
303.15 K, a1 = 10	1207.1	–	213.35
303.15 K, a1 = 15	1207.1	–	163.42
303.3 K, a1 = 2	–	47.6	–
308.15 K, a1 = 1.3	1160	–	364.59
308.15 K, a1 = 1.5	1168.2	–	304.96
308.15 K, a1 = 2	1172.5	–	263.28
308.15 K, a1 = 2.5	1177.7	–	241.21
308.15 K, a1 = 3	1182.1	–	211.64
308.15 K, a1 = 3.5	1185.9	–	200.01
308.15 K, a1 = 5	1193	–	176.99
308.15 K, a1 = 8	1200.1	–	155.91
308.15 K, a1 = 10	1203	–	146.37
308.15 K, a1 = 15	1203	–	146.37
308.3 K, a1 = 2	–	47.3	–
313.15 K, a1 = 1.3	1157	–	267.49
313.15 K, a1 = 1.5	1165	–	222.55
313.15 K, a1 = 2	1169.3	–	191.68
313.15 K, a1 = 2.5	1174.4	–	174.9
313.15 K, a1 = 3	1178.6	–	153.04
313.15 K, a1 = 3.5	1182.3	–	144.01
313.15 K, a1 = 5	1189.3	–	126.42
313.15 K, a1 = 8	1196.2	–	110.53
313.15 K, a1 = 10	1199	–	103.52
313.15 K, a1 = 15	1199	–	103.52
313.5 K, a1 = 2	–	47	–
318.15 K, a1 = 1.3	1154	–	200.31
318.15 K, a1 = 1.5	1161.9	–	165.87
318.15 K, a1 = 2	1166.2	–	142.7
318.15 K, a1 = 2.5	1171.1	–	129.75
318.15 K, a1 = 3	1175.2	–	113.34
318.15 K, a1 = 3.5	1178.8	–	106.26
318.15 K, a1 = 5	1185.6	–	92.66
318.15 K, a1 = 8	1192.3	–	80.53
318.15 K, a1 = 10	1195	–	75.26
318.15 K, a1 = 15	1195	–	75.26
319.2 K, a1 = 2	–	46.7	–
323.15 K, a1 = 1.3	1151.1	–	152.8
323.15 K, a1 = 1.5	1158.9	–	126.22
323.15 K, a1 = 2	1163	–	108.45
323.15 K, a1 = 2.5	1167.9	–	98.3
323.15 K, a1 = 3	1171.8	–	85.77
323.15 K, a1 = 3.5	1175.3	–	80.16
323.15 K, a1 = 5	1181.9	–	69.53
323.15 K, a1 = 8	1188.4	–	60.12
323.15 K, a1 = 10	1191	–	56.1
323.15 K, a1 = 15	1191	–	56.1
323.5 K, a1 = 2	–	46.5	–
328.15 K, a1 = 1.3	1148.2	–	118.6
328.15 K, a1 = 1.5	1155.8	–	97.77
328.15 K, a1 = 2	1159.9	–	83.99
328.15 K, a1 = 2.5	1164.6	–	75.93
328.15 K, a1 = 3	1168.4	–	66.19
328.15 K, a1 = 3.5	1171.8	–	61.71
328.15 K, a1 = 5	1178.3	–	53.28
328.15 K, a1 = 8	1184.5	–	45.88
328.15 K, a1 = 10	1186.9	–	42.76
328.15 K, a1 = 15	1186.9	–	42.76
328.6 K, a1 = 2	–	46.2	–
333.15 K, a1 = 1.3	1145.3	–	93.55
333.15 K, a1 = 1.5	1152.7	–	76.99
333.15 K, a1 = 2	1156.7	–	66.16
333.15 K, a1 = 2.5	1161.3	–	59.67
333.15 K, a1 = 3	1165	–	52
333.15 K, a1 = 3.5	1168.3	–	48.38
333.15 K, a1 = 5	1174.6	–	41.63
333.15 K, a1 = 8	1180.5	–	35.72
333.15 K, a1 = 10	1182.9	–	33.26
333.15 K, a1 = 15	1182.9	–	33.26
333.2 K, a1 = 2	–	46	–
338.1 K, a1 = 2	–	45.7	–
338.15 K, a1 = 1.3	1142.4	–	74.84
338.15 K, a1 = 1.5	1149.7	–	61.57
338.15 K, a1 = 2	1153.6	–	53.08
338.15 K, a1 = 2.5	1158	–	47.66
338.15 K, a1 = 3	1161.6	–	41.53
338.15 K, a1 = 3.5	1164.8	–	38.58
338.15 K, a1 = 5	1170.9	–	33.1
338.15 K, a1 = 8	1176.6	–	28.33
338.15 K, a1 = 10	1178.8	–	26.35
338.15 K, a1 = 15	1178.8	–	26.35
343.15 K, a1 = 1.3	1139.6	–	60.71
343.15 K, a1 = 1.5	1146.7	–	49.92
343.15 K, a1 = 2	1150.5	–	43.05
343.15 K, a1 = 2.5	1154.8	–	38.64
343.15 K, a1 = 3	1158.2	–	33.66
343.15 K, a1 = 3.5	1161.3	–	31.24
343.15 K, a1 = 5	1167.2	–	26.74
343.15 K, a1 = 8	1172.7	–	22.83
343.15 K, a1 = 10	1174.7	–	21.23
343.15 K, a1 = 15	1174.7	–	21.23
348.15 K, a1 = 1.3	1136.7	–	49.84
348.15 K, a1 = 1.5	1143.7	–	41.01
348.15 K, a1 = 2	1147.4	–	35.4
348.15 K, a1 = 2.5	1151.5	–	31.75
348.15 K, a1 = 3	1154.9	–	27.66
348.15 K, a1 = 3.5	1157.8	–	25.64
348.15 K, a1 = 5	1163.5	–	21.91
348.15 K, a1 = 8	1168.8	–	18.68
348.15 K, a1 = 10	1170.7	–	17.36
348.15 K, a1 = 15	1170.7	–	17.36
353.15 K, a1 = 1.3	1133.9	–	41.4
353.15 K, a1 = 1.5	1140.7	–	34.08
353.15 K, a1 = 2	1144.3	–	29.46
353.15 K, a1 = 2.5	1148.3	–	26.41
353.15 K, a1 = 3	1151.5	–	23.01
353.15 K, a1 = 3.5	1154.2	–	21.32
353.15 K, a1 = 5	1159.8	–	18.2
353.15 K, a1 = 8	1164.8	–	15.49
353.15 K, a1 = 10	1166.7	–	14.38
353.15 K, a1 = 15	1166.7	–	14.38
358.15 K, a1 = 1.3	1131.1	–	34.75
358.15 K, a1 = 1.5	1137.7	–	28.64
358.15 K, a1 = 2	1141.2	–	24.79
358.15 K, a1 = 2.5	1145.1	–	22.22
358.15 K, a1 = 3	1148.1	–	19.37
358.15 K, a1 = 3.5	1150.9	–	17.94
358.15 K, a1 = 5	1156.1	–	15.29
358.15 K, a1 = 8	1160.9	–	13.01
358.15 K, a1 = 10	1162.7	–	12.05
358.15 K, a1 = 15	1162.7	–	12.05
363.15 K, a1 = 1.3	1128.3	–	29.44
363.15 K, a1 = 1.5	1134.7	–	24.31
363.15 K, a1 = 2	1138.1	–	21.08
363.15 K, a1 = 2.5	1141.9	–	18.89
363.15 K, a1 = 3	1144.7	–	16.45
363.15 K, a1 = 3.5	1147.4	–	15.29
363.15 K, a1 = 5	1152.3	–	12.99
363.15 K, a1 = 8	1157.1	–	11.05
363.15 K, a1 = 10	1158.6	–	10.23
363.15 K, a1 = 15	1158.6	–	10.23
